The values below come from US12115155B2, “Solid dosage form of a nicotine concentration” (Fertin Pharma A/S, priority 2017, dated 2024).

The conditions of the data set: nicotine concentration increased from 100 microgram/mL to 14,000 microgram/mL.

As to `CN1CCCC1c1cccnc1` (stereo not shown) [nicotine], the “change of permeability of nicotine across the buccal mucosa” value was “decrease of about a factor of two”.
